In EPA's ToxValDB 9.5 (doi:10.2903/j.efsa.2016.4503):

Assays:
[1] = system: Anas platyrhynchos; details: acute; oral; unspecified; mortality
[2] = system: Apis mellifera; details: acute, mortality
[3] = system: Bibionidae; details: chronic/long-term; duration: 23 days; reproduction
[4] = system: Colinus virginianus; details: acute; oral; mortality
[5] = system: Coturnix japonica; details: chronic
[6] = system: Hypoaspis aculeifer; details: chronic/long-term; reproduction
[7] = system: Oncorhynchus mykiss; details: acute; duration: 96 hours; mortality
[8] = system: Pimephales promelas; details: chronic/long-term; duration: 28 days
[9] = system: Rattus norvegicus
[10] = system: Tagia sp.; details: chronic/long-term; reproduction
[11] = system: Aphidius rhopalosiphi; test: LR50; higher = less toxic; details: not reported; mortality

Q: Which results are given for `Cc1ccc(-c2c(Cl)nc(C#N)n2S(=O)(=O)N(C)C)cc1`?
A: LD50 [1]: > 2000 mg/kg-day; LD50 ([2]; dermal): 9.52 µg/piece; LD50 ([2]; oral, unspecified): > 31.8 µg/piece; NOEC [3]: 0.0117 mg/L; LD50 [4]: > 2000 mg/kg-day; NOAEL [5]: 151 mg/kg-day; NOEC [6]: 18.7 mg/kg; LC50 [7]: > 0.107 µg/mL; NOEC [8]: 0.09 mg/L; LD50 ([9]; acute, oral, mortality): > 5000 mg/kg; NOAEL ([9]; chronic, duration: 2 years, organ weight): 17 mg/kg-day; NOAEL ([9]; reproduction developmental, body weight): 89 mg/kg-day; NOAEL ([9]; subchronic, duration: 90 days, oral, organ weight): 29.5 mg/kg-day; NOEC [10]: 2 mg/kg; LR50 [11]: > 209 g/ha
